What was measured:
[1] = system: Jurkat human T lymphocyte cell line; test: Apoptosis assay (Annexin V) of compounds incubated with human serum
Procedure: Compounds of formula I, as shown in Table 1 above and in the Examples, were assayed for their capacity to induce apoptosis in cells from the Jurkat human T lymphocyte cell line, after incubation with pooled human serum for varying periods of time at 37° C. (see Example 19). An ester prodrug, triptolide-14-succinate, designated PG490-88, was included for comparison. The extent of conversion to triptolide after such incubation was also independently determined by HPLC analysis.
The ED50 values (column 3) are calculated directly from the data in each experiment, and the % conversion values (column 4) are calculated as percent of the ED50 value produced by triptolide, designated PG490, incubated in the same plasma (i.e. in the same experiment).
A. Incubation of compounds with human serum. Pooled human serum was stored in aliquots at −80° C. Test compounds were added at 20 mM to thawed human serum in 1.5 ml microfuge tubes and incubated at 37° C. in a water bath for varying periods of time. The test samples were placed on ice until dilution for the bioassay. Controls consisted of the compounds incubated in complete tissue culture medium (RPMI 1640 medium plus 5% heat-inactivated fetal calf serum, 1% HEPES, 1% pen/strep, 1% glutamine) rather than human serum.
B. Apoptosis assay of compounds incubated with human serum. Test samples were diluted to 1 mM in complete tissue culture medium. Aliquots were placed in microculture plates and serial dilutions were prepared so that the final concentration would encompass the range of 1 to 10,000 nM with half-log increments. Cells from an exponentially expanding culture of the Jurkat human T lymphocyte cell line (#TIB-152 obtained from American Type Culture Collection, Manassas, Va.) were harvested, washed once by centrifugation and dilution in complete tissue culture medium, and diluted to a concentration of 1×10^6 cells/ml. A volume of 100 μl of Jurkat cells (1×10^5 cells) was added to wells containing 100 μl of the diluted compounds, and the plates were incubated at 37° C. in a 5% CO2 incubator. After 24 hours, the plates were centrifuged to pellet the cells, and the cells were washed twice with 2% heat-inactivated fetal calf serum in PBS. To each well, 500 ul of binding buffer was added according to the Annexin V assay procedure (BioVision, Inc., Mountain View, Calif.). Next, 5 μl of the fluorescein isothiocyanate (FITC) conjugate of Annexin V (BioVision, Inc.) was added to each well, followed by 5 minutes of incubation in the dark. In some assays, propidium iodide (BioVision, Inc.) was added at this stage to check for necrotic cells. The contents of the wells were individually transferred into test tubes, and apoptosis was analyzed using a FACSCalibur flow cytometer (BD Immunocytometry Systems, San Jose, Calif.). Cells positive for Annexin V binding were considered to be apoptotic, and the data were calculated as percent apoptotic cells.
C. Comparison of bioactivities after incubation of compounds in human serum. The data were plotted as the concentration of compound incubated in serum versus percent apoptotic cells. The concentration of compound inducing 50% apoptosis (ED50) was calculated from these dose response curves. […] This percentage conversion was used to compare the bioactivity of various compounds after incubation in human serum.

[2] = system: IL-2 production in Jurkat human T lymphocyte cells; test: IL-2 production assay for activity of compounds incubated with human serum; conditions: for bioactivity in IL-2 inhibition assays (in words): FIGS. 4-5; for IL-2 pg/mL at given concentration (nM): Table 8, Jurkat cells
Procedure: Several compounds of formula I were analyzed for their capacity to inhibit IL-2 production in Jurkat human T lymphocyte cells, after incubation with pooled human serum for 48 hours at 37° C. (see Example 20). An ester prodrug, triptolide-14-succinate, designated PG490-88, was included for comparison.
The IC50 values (column 1) are calculated directly from the data in each experiment. The % conversion values (column 2) are calculated as the percent of the IC50 value produced by triptolide, designated PG490, incubated in the same plasma (i.e. in the same experiment).
A. IL-2 production assay for activity of compounds incubated with human serum. Test samples were diluted to 1 mM in complete tissue culture medium. […] Cells from an exponentially expanding culture of the Jurkat human T lymphocyte cell line (#TIB-152 obtained from American Type Culture Collection, Manassas, Va.) were harvested, washed once by centrifugation and dilution in complete tissue culture medium, and diluted to a concentration of 2×10^6 cells/ml. A volume of 50 μl of Jurkat cells (1×10^5 cells) was added to wells containing 100 μl of the diluted compounds, 50 μl of PMA (10 ng/ml) was added to each well, and the plates were incubated at 37° C. in a 5% CO2 incubator. After 24 hours, the plates were centrifuged to pellet the cells, 150 μl of supernatant was removed from each well, and the samples were stored at −20° C. The stored supernatants were analyzed for human IL-2 concentration using the Luminex 100 (Luminex Corporation, Austin, Tex.), Luminex microspheres coupled with anti-IL-2 capture antibody, and fluorochrome-coupled anti-IL-2 detection antibody. The data were expressed as ng/ml of IL-2.
B. Comparison of bioactivities after incubation of compounds in human serum. The data were plotted as the concentration of compound incubated in serum versus IL-2 concentration. The concentration of compound inducing a 50% decrease in the IL-2 concentration (IC50) was calculated from these dose response curves. […] This percentage conversion was used to compare the bioactivity of various compounds after incubation in human serum.

[3] = Table 4, serum, 48 hr, 10000 nM

Row | Compound | % apoptotic cells at given concentration (nM) ([1]; Table 4, medium, 10000 nM) [%] | % apoptotic cells at given concentration (nM) ([1]; Table 4, serum, 0 hr, 10000 nM) [%] | % apoptotic cells at given concentration (nM) ([1]; Table 4, serum, 48 hr, 0.03 nM) [%] | % apoptotic cells at given concentration (nM) ([1]; Table 4, serum, 48 hr, 0.1 nM) [%] | % apoptotic cells at given concentration (nM) ([1]; Table 4, serum, 48 hr, 0.3 nM) [%] | % apoptotic cells at given concentration (nM) ([1]; Table 4, serum, 48 hr, 1 nM) [%] | % apoptotic cells at given concentration (nM) ([1]; Table 4, serum, 48 hr, 3 nM) [%] | % apoptotic cells at given concentration (nM) ([1]; Table 4, serum, 48 hr, 10 nM) [%] | % apoptotic cells at given concentration (nM) ([1]; Table 4, serum, 48 hr, 30 nM) [%] | % apoptotic cells at given concentration (nM) ([1]; Table 4, serum, 48 hr, 100 nM) [%] | % apoptotic cells at given concentration (nM) ([1]; Table 4, serum, 48 hr, 300 nM) [%] | % apoptotic cells at given concentration (nM) ([1]; Table 4, serum, 48 hr, 1000 nM) [%] | % apoptotic cells at given concentration (nM) ([1]; Table 4, serum, 48 hr, 3000 nM) [%] | % apoptotic cells at given concentration (nM) [1, 3] [%] | bioactivity in IL-2 inhibition assays (in words) [2] | IL-2 pg/mL at given concentration (nM) ([2]; 0.0001 nM) [pg/mL] | IL-2 pg/mL at given concentration (nM) ([2]; 0.001 nM) [pg/mL] | IL-2 pg/mL at given concentration (nM) ([2]; 0.01 nM) [pg/mL] | IL-2 pg/mL at given concentration (nM) ([2]; 0.1 nM) [pg/mL] | IL-2 pg/mL at given concentration (nM) ([2]; 1 nM) [pg/mL] | other results
1 | CC(C)[C@]12O[C@H]1[C@@H]1O[C@]13[C@]1(O[C@H]1C[C@H]1C4=C(CC[C@@]13C)C(=O)OC4)[C@@H]2OC(=O)CCC(N)C(=O)O (stereo partly shown) [PG661, 14-isoglutamyl ester, reference compound] | 7.3 | 5.2 | 38.8 | 38.2 | 39.0 | 39.2 | 39.1 | 39.2 | 40.3 | 38.6 | 36.3 | 28.7 | 28.2 | 5.2 | little or no activity | 82.0 | 102.1 | 123.6 | 120.7 | 98.2 | % apoptotic cells at given concentration (nM) ([1]; Table 3, human serum, 0 hr, 10000 nM): 7.9%; % apoptotic cells at given concentration (nM) ([1]; Table 3, human serum, 48 hr, 1 nM): 11.3%; % apoptotic cells at given concentration (nM) ([1]; Table 3, human serum, 48 hr, 3 nM): 10.4%; % apoptotic cells at given concentration (nM) ([1]; Table 3, human serum, 48 hr, 10 nM): 10.3%; % apoptotic cells at given concentration (nM) ([1]; Table 3, human serum, 48 hr, 30 nM): 10.5%; % apoptotic cells at given concentration (nM) ([1]; Table 3, human serum, 48 hr, 100 nM): 10.3%; % apoptotic cells at given concentration (nM) ([1]; Table 3, human serum, 48 hr, 300 nM): 10.5%; % apoptotic cells at given concentration (nM) ([1]; Table 3, human serum, 48 hr, 1000 nM): 10.2%; % apoptotic cells at given concentration (nM) ([1]; Table 3, human serum, 48 hr, 3000 nM): 9.7%; % apoptotic cells at given concentration (nM) ([1]; Table 3, human serum, 48 hr, 10000 nM): 9.4%; % apoptotic cells at given concentration (nM) ([1]; Table 3, medium only, 10000 nM): 13.6%; apoptotic activity (in words) ([1]; after 48 hr. incubation in human serum): essentially no activity; IL-2 pg/mL at given concentration (nM) ([2]; 10 nM): 110.3 pg/mL; IL-2 pg/mL at given concentration (nM) ([2]; 100 nM): 103.6 pg/mL; IL-2 pg/mL at given concentration (nM) ([2]; 1000 nM): 74.4 pg/mL; IL-2 pg/mL at given concentration (nM) ([2]; 10000 nM): 68.7 pg/mL
2 | CC(C)[C@]12O[C@H]1[C@@H]1O[C@]13[C@]1(O[C@H]1C[C@H]1C4=C(CC[C@@]13C)C(=O)OC4)[C@@H]2OC(=O)Nc1ccccc1 [PG671, Triptolide 14-Phenyl Carbamate] | 13.7 | 10.2 | 42.5 | 43.3 | 43.9 | 44.2 | 43.2 | 42.4 | 44.7 | 43.5 | 43.1 | 43.0 | 43.3 | 15.4 | some level of bioactivity | 96.4 | 102.7 | 99.7 | 114.7 | 106.1 | conversion in human serum (in words) [1]: less readily converted; IL-2 pg/mL at given concentration (nM) ([2]; 10 nM): 90.7 pg/mL; IL-2 pg/mL at given concentration (nM) ([2]; 100 nM): 77.9 pg/mL; IL-2 pg/mL at given concentration (nM) ([2]; 1000 nM): 48.7 pg/mL; IL-2 pg/mL at given concentration (nM) ([2]; 10000 nM): 8.8 pg/mL
